Laboratory results taken from patent US20230218688A1 (Zhejiang Chinese Medical University, priority 2022, published 2023).

Columns and labels:
[1] = tested on: Lactobacillus helveticus ZJUIDS12; assay: Antibiotic susceptibility of Lactobacillus helveticus ZJUIDS12 (susceptibility paper, inhibition zone); format: cell-based; design: key to Susceptive type: S: sensitive; I: intermediate; R: insensitive; conditions: according to CLSI 2017
[2] = tested on: Helicobacter pylori ATCC43504; assay: Growth inhibition experiment on Helicobacter pylori; format: cell-based

Row | Molecule | Susceptive type [1] | susceptibility of Lactobacillus helveticus ZJUIDS12 to the antibiotic (in words) [1] | Inhibition rates to Helicobacter pylori (%) ([2]; Fermentation supernatant) | Inhibition rates to Helicobacter pylori (%) ([2]; Suspension)
1 | CC1(C)S[C@@H]2[C@H](NC(=O)Cc3ccccc3)C(=O)N2[C@H]1C(=O)O [Penicillin G(P), Penicillin G] | S | sensitive |  | 
2 | CC[C@H]1OC(=O)[C@H](C)[C@@H](O[C@H]2C[C@@](C)(OC)[C@@H](O)[C@H](C)O2)[C@H](C)[C@@H](O[C@@H]2O[C@H](C)C[C@H](N(C)C)[C@H]2O)[C@](C)(O)C[C@@H](C)C(=O)[C@H](C)[C@@H](O)[C@]1(C)O [Erythromycin (E), Erythromycin] | S | sensitive |  | 
3 | CC1(C)S[C@@H]2[C@H](NC(=O)[C@H](N)c3ccccc3)C(=O)N2[C@H]1C(=O)O [Ampicillin (AM), Ampicillin] | S | sensitive |  | 
4 | O=C(N[C@H](CO)[C@H](O)c1ccc([N+](=O)[O-])cc1)C(Cl)Cl [Chloramphenicol (C), Chloramphenicol] | S | sensitive |  | 
5 | Cc1nnc(SCC2=C(C(=O)O)N3C(=O)[C@@H](NC(=O)Cn4cnnn4)[C@H]3SC2)s1 [Cefazolin(CZ), Cefazolin] | S | sensitive |  | 
6 | CCn1cc(C(=O)O)c(=O)c2cc(F)c(N3CCNCC3)cc21 [Norfloxacin (NOR), Norfloxacin] | S | sensitive |  | 
7 | Gentamicin [Gentamicin (GM)] | I | intermediate |  | 
8 | Cc1cc(NS(=O)(=O)c2ccc(N)cc2)no1 [Sulfamethoxazole (SXT), Sulfamethoxazole] | R | insensitive |  | 
9 | Cc1ncc([N+](=O)[O-])n1CCO [Positive control, metronidazole] |  |  | 100% | 100%
10 | NCC[C@H](O)C(=O)N[C@@H]1C[C@H](N)[C@@H](O[C@H]2O[C@H](CN)[C@@H](O)[C@H](O)[C@H]2O)[C@H](O)[C@H]1O[C@H]1O[C@H](CO)[C@@H](O)[C@H](N)[C@H]1O [Amikacin (AK), Amikacin] | S | sensitive |  | 
